Data reported in patent publication US20240374579A1, “BICYCLIC PGDH INHIBITORS AND METHODS OF MAKING AND USING” (EPIRIUM BIO INC., priority 2021, published 2024).

These compounds were tested against T1, 15-PGDH/HPGD (Homo sapiens, UniProt P15428) (assay: hPGDH inhibitor screening biochemical assay). Details: 10 nM enzyme, 15 μM PGE2, 0.25 mM NAD, fluorescence ex/em 340/485 nm.
T1 construct: purchased R&D System 5660-DH
T1 sequence (P15428 1-266): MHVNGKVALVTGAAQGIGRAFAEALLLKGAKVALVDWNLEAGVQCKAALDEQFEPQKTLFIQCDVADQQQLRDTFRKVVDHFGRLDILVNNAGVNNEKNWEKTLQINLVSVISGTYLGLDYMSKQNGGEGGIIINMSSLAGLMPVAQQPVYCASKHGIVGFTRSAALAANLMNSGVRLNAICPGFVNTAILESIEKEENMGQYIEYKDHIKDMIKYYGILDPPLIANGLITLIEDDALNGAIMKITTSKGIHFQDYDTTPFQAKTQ
Method: A hydroxyprostaglandin dehydrogenase inhibition screening biochemical assay can be performed to assess the synthesized inhibitors provided herein. Provided herein is an exemplary biochemical assay for hPGDH inhibitor screening.
The in vitro biochemical assay can be performed in white, 384 plates in total 20 μl reaction volume consisting of 10 nM of 15-PGDH/HPGD (R&D System #5660-DH), 15 μM Prostaglandin E2 (Sigma, Cat #P5640-10MG) and 0.25 mM β-Nicotinamide adenine dinucleotide sodium salt (Sigma, Cat #N0632-5G) made in reaction buffer (50 mM Tris-HCl, pH 7.5, 0.01% Tween 20) at 10-point dose response curve for test/tool compounds. Briefly, 5 μl (4×) of compounds solution and 5 μl (final concentration, 10 nM) of enzyme solution is added to white 384 well plates and incubated for 10 mins at 37° C. 5 μl (4×) of Prostaglandin E2 and 5 μl (4×) of β-Nicotinamide adenine dinucleotide sodium salt is added to the wells and incubated for 10 mins at room temperature. Fluorescence is recorded at ex/em=340 nm/485 nm. The percentage ([…]) inhibition of enzyme activity was determined relative to positive control (1% DMSO) and IC50 was calculated using GraphPad prism software (four parameter-variable slope equation).

Compound | IC50
O=C(O)c1ccc(-n2nnc3cc(C(=O)N4CCC(F)(F)CC4)cnc32)cc1 [Compound C-1, 4-(6-(4,4-difluoropiperidine-1-carbonyl)-3H-[1,2,3]triazolo[4,5-b]pyridin-3-yl)benzoic acid] | < 100 nM
O=C(O)c1ccc(-n2ncc3cc(C(=O)N4CCC(F)(F)CC4)cnc32)cc1 [Compound C-2, 4-(5-(4,4-difluoropiperidine-1-carbonyl)-1H-pyrazolo[3,4-b]pyridin-1-yl) benzoic acid] | < 100 nM
Cc1nc2cc(C(=O)N3CCC(F)(F)CC3)cnc2n1-c1ccc(C(=O)O)cc1 [Compound C-3, 4-(6-(4,4-difluoropiperidine-1-carbonyl)-2-methyl-3H-imidazo[4,5-b]pyridin-3-yl)benzoic acid] | < 100 nM
O=C(c1cnc2c(cnn2-c2ccc(-c3ncn[nH]3)nc2)c1)N1CCC(F)(F)CC1 [Compound C-4] | < 100 nM
O=C(c1cnc2c(c1)nnn2-c1ccc(-c2ncn[nH]2)nc1)N1CCC(F)(F)CC1 [Compound C-5, (3-(6-(1H-1,2,4-triazol-5-yl)pyridin-3-yl)-3H-[1,2,3]triazolo[4,5-b]pyridin-6-yl) (4,4-difluoropiperidin-1-yl)methanone] | < 100 nM
O=C(c1cnc2c(c1)nnn2-c1ccc(-c2ncn[nH]2)cc1)N1CCC(F)(F)CC1 [Compound C-7, (3-(4-(1H-1,2,4-triazol-5-yl)phenyl)-3H-[1,2,3]triazolo[4,5-b]pyridin-6-yl) (4,4-difluoropiperidin-1-yl)methanone] | < 100 nM
O=C(c1ccc2c(c1)nnn2-c1ccc(-c2ncn[nH]2)nc1)N1CCC(F)(F)CC1 [Compound C-9, (1-(6-(1H-1,2,4-triazol-5-yl)pyridin-3-yl)-1H-benzo[d][1,2,3]triazol-5-yl) (4,4-difluoropiperidin-1-yl)methanone] | 100 to 1000 nM
O=C(c1ccc2c(c1)nnn2-c1ccc(-c2ncn[nH]2)cc1)N1CCC(F)(F)CC1 [Compound C-10, (1-(4-(1H-1,2,4-triazol-5-yl)phenyl)-1H-benzo[d][1,2,3]triazol-5-yl) (4,4-difluoropiperidin-1-yl)methanone] | 100 to 1000 nM
O=C(O)c1ccc(-n2nnc3cc(C(=O)N4CCC(F)(F)CC4)ccc32)cc1 [Compound C-11, 4-(5-(4,4-difluoropiperidine-1-carbonyl)-1H-benzo[d][1,2,3]triazol-1-yl) benzoic acid] | 100 to 1000 nM
O=C(c1ccc2c(cnn2-c2ccc(-c3ncn[nH]3)nc2)c1)N1CCC(F)(F)CC1 [Compound C-12] | < 100 nM
O=C(c1ccc2c(cnn2-c2ccc(-c3ncn[nH]3)cc2)c1)N1CCC(F)(F)CC1 [Compound C-13] | < 100 nM
O=C(O)c1ccc(-n2ncc3cc(C(=O)N4CCC(F)(F)CC4)ccc32)cc1 [Compound C-14, 4-(5-(4,4-difluoropiperidine-1-carbonyl)-1H-indazol-1-yl) benzoic acid] | < 100 nM
O=C(c1ccc2c(c1)ncn2-c1ccc(-c2ncn[nH]2)nc1)N1CCC(F)(F)CC1 [Compound C-15, (1-(6-(1H-1,2,4-triazol-5-yl)pyridin-3-yl)-1H-benzo[d]imidazol-5-yl)(4,4-difluoropiperidin-1-yl)methanone] | 100 to 1000 nM
O=C(c1ccc2c(c1)ncn2-c1ccc(-c2ncn[nH]2)cc1)N1CCC(F)(F)CC1 [Compound C-16, (1-(4-(1H-1,2,4-triazol-5-yl)phenyl)-1H-benzo[d]imidazol-5-yl)(4,4-difluoropiperidin-1-yl)methanone] | < 100 nM
O=C(O)c1ccc(-n2cnc3cc(C(=O)N4CCC(F)(F)CC4)ccc32)cc1 [Compound C-17, 4-(5-(4,4-difluoropiperidine-1-carbonyl)-1H-benzo[d]imidazol-1-yl) benzoic acid] | < 100 nM
CN(C)c1nc2ccc(-n3ncc4cc(C(=O)N5CCC(F)(F)CC5)cnc43)cn2n1 [Compound C-24] | ≥ 1000 nM
O=C(Nc1cccc(-n2ncc3cc(C(=O)N4CCC(F)(F)CC4)cnc32)c1)C1CC1 [Compound C-49] | 100 to 1000 nM
CCOC(=O)Nc1cncc(-n2ncc3cc(C(=O)N4CCC[C@H](C(F)(F)F)C4)cnc32)c1 [Compound C-54] | 100 to 1000 nM
CCOC(=O)Nc1cncc(-n2ncc3cc(C(=O)N4CC[C@H](C(C)(F)F)C4)cnc32)c1 [Compound C-65] | 100 to 1000 nM

More lines, now with the values ahead:

IC50 | Compound
< 100 nM | C[C@H]1CCCN(C(=O)c2cnc3c(cnn3-c3ccc(-c4nnc[nH]4)nc3)c2)C1 [Compound C-20]
< 100 nM | C[C@H]1CCN(C(=O)c2cnc3c(cnn3-c3ccc(-c4nnc[nH]4)nc3)c2)C1 [Compound C-21]
< 100 nM | O=C(c1cnc2c(cnn2-c2ccc(-c3nnc[nH]3)nc2)c1)N1CC2CCCC2C1 (stereo not shown) [Compound C-22]
< 100 nM | O=C(c1cnc2c(cnn2-c2ccc(-c3nnc[nH]3)cc2)c1)N1CCCC(F)(F)C1 [Compound C-31]
< 100 nM | C[C@H]1CCCN(C(=O)c2cnc3c(cnn3-c3cncc(-c4nc[nH]n4)c3)c2)C1 [Compound C-34]
< 100 nM | C[C@H]1CCCN(C(=O)c2cnc3c(cnn3-c3cncc(C(N)=O)c3)c2)C1 [Compound C-35]
< 100 nM | O=C(c1cnc2c(cnn2-c2cccc(-c3nnc[nH]3)c2)c1)N1CCC(F)(F)CC1 [Compound C-41, (1-(3-(4H-1,2,4-triazol-3-yl)phenyl)-1H-pyrazolo[3,4-b]pyridin-5-yl)(4,4-difluoropiperidin-1-yl)methanone]
100 to 1000 nM | O=C(c1cnc2c(cnn2-c2ccc(-c3nnc[nH]3)cc2)c1)N1CC2CC2C1 (stereo not shown) [Compound C-42]
100 to 1000 nM | CCO[C@H]1CCN(C(=O)c2cnc3c(cnn3-c3ccc(-c4nnc[nH]4)cc3)c2)C1 [Compound C-43]
≥ 1000 nM | CCO[C@@H]1CCN(C(=O)c2cnc3c(cnn3-c3ccc(-c4nnc[nH]4)cc3)c2)C1 [Compound C-44]
100 to 1000 nM | C[C@@H]1CCN(C(=O)c2cnc3c(cnn3-c3ccc(-c4nnc[nH]4)cc3)c2)C1 [Compound C-46]
≥ 1000 nM | C[C@H]1CCN(C(=O)c2cnc3c(cnn3-c3ccc(-c4nnc[nH]4)cc3)c2)C1 [Compound C-47]
100 to 1000 nM | CC1(C)CCN(C(=O)c2cnc3c(cnn3-c3ccc(-c4nnc[nH]4)cc3)c2)C1 [Compound C-51]
100 to 1000 nM | O=C(c1cnc2c(cnn2-c2ccc(-c3nnc[nH]3)cc2)c1)N1CCCC(C(F)(F)F)C1 (stereo not shown) [Compound C-58]
< 100 nM | C[C@@H]1CN(C(=O)c2cnc3c(cnn3-c3cc(Cl)cc(-c4nnc[nH]4)c3)c2)CCO1 [Compound C-60]
< 100 nM | CC(F)(F)[C@H]1CCN(C(=O)c2cnc3c(cnn3-c3ccc(-c4nnc[nH]4)cc3)c2)C1 [Compound C-61]
< 100 nM | O=C(c1cnc2c(cnn2-c2cc(Cl)cc(-c3nnc[nH]3)c2)c1)N1CCC(F)(F)CC1 [Compound C-62]
< 100 nM | O=C(c1cnc2c(cnn2-c2ccc(-c3nnc[nH]3)c(F)c2)c1)N1CCC(F)(F)CC1 [Compound C-63]
< 100 nM | O=C(c1cnc2c(cnn2-c2ccc(-c3nnc[nH]3)c(F)c2)c1)N1CCSCC1 [Compound C-64]
< 100 nM | O=C(c1cnc2c(cnn2-c2cc(Cl)cc(-c3nnc[nH]3)c2)c1)N1CCSCC1 [Compound C-66, (1-(3-chloro-5-(4H-1,2,4-triazol-3-yl)phenyl)-1H-pyrazolo[3,4-b]pyridin-5-yl)(thiomorpholino)methanone]
100 to 1000 nM | O=C(c1cnc2c(cnn2-c2cc(Cl)cc(-c3nnc[nH]3)c2)c1)N1CC[S+]([O-])CC1 [Compound C-67]
